{"source": "the NIST ThermoML archive (doi:10.1021/acs.jced.7b00564)", "assay": "xn = mol fraction of the nth substance listed", "conditions": "Gas, isochoric method", "note": "Numbers after ± are expanded uncertainties."}
{"compound": "F/C=C/C(F)(F)F", "note": "[trans-1,3,3,3-tetrafluoropropene] + CC(C)C", "values": [{"measurement": "specific volume", "setting": "303.15 K, 259.6 kPa, x2 = 0.516", "value": "0.1062 ± 0.0008", "unit": "m3/kg"}, {"measurement": "specific volume", "setting": "303.15 K, 267.9 kPa, x2 = 0.29", "value": "0.0895 ± 0.0008", "unit": "m3/kg"}, {"measurement": "specific volume", "setting": "303.15 K, 304.9 kPa, x2 = 0.685", "value": "0.1004 ± 0.0008", "unit": "m3/kg"}, {"measurement": "specific volume", "setting": "303.15 K, 305.5 kPa, x2 = 0.428", "value": "0.0844 ± 0.0008", "unit": "m3/kg"}, {"measurement": "specific volume", "setting": "303.15 K, 321 kPa, x2 = 0.612", "value": "0.089 ± 0.0009", "unit": "m3/kg"}, {"measurement": "specific volume", "setting": "303.15 K, 367.4 kPa, x2 = 0.755", "value": "0.0856 ± 0.0008", "unit": "m3/kg"}, {"measurement": "specific volume", "setting": "308.15 K, 264.5 kPa, x2 = 0.516", "value": "0.1062 ± 0.0008", "unit": "m3/kg"}, {"measurement": "specific volume", "setting": "308.15 K, 273 kPa, x2 = 0.29", "value": "0.0895 ± 0.0008", "unit": "m3/kg"}, {"measurement": "specific volume", "setting": "308.15 K, 310.7 kPa, x2 = 0.685", "value": "0.1004 ± 0.0008", "unit": "m3/kg"}, {"measurement": "specific volume", "setting": "308.15 K, 311.3 kPa, x2 = 0.428", "value": "0.0844 ± 0.0008", "unit": "m3/kg"}, {"measurement": "specific volume", "setting": "308.15 K, 327.2 kPa, x2 = 0.612", "value": "0.089 ± 0.0008", "unit": "m3/kg"}, {"measurement": "specific volume", "setting": "308.15 K, 374.9 kPa, x2 = 0.755", "value": "0.0856 ± 0.0008", "unit": "m3/kg"}, {"measurement": "specific volume", "setting": "313.15 K, 269.2 kPa, x2 = 0.516", "value": "0.1062 ± 0.0008", "unit": "m3/kg"}, {"measurement": "specific volume", "setting": "313.15 K, 277.9 kPa, x2 = 0.29", "value": "0.0896 ± 0.0007", "unit": "m3/kg"}, {"measurement": "specific volume", "setting": "313.15 K, 316.5 kPa, x2 = 0.685", "value": "0.1005 ± 0.0007", "unit": "m3/kg"}, {"measurement": "specific volume", "setting": "313.15 K, 317.1 kPa, x2 = 0.428", "value": "0.0844 ± 0.0008", "unit": "m3/kg"}, {"measurement": "specific volume", "setting": "313.15 K, 333.4 kPa, x2 = 0.612", "value": "0.0891 ± 0.0008", "unit": "m3/kg"}, {"measurement": "specific volume", "setting": "313.15 K, 382.2 kPa, x2 = 0.755", "value": "0.0857 ± 0.0008", "unit": "m3/kg"}, {"measurement": "specific volume", "setting": "318.15 K, 274 kPa, x2 = 0.516", "value": "0.1063 ± 0.0008", "unit": "m3/kg"}, {"measurement": "specific volume", "setting": "318.15 K, 282.8 kPa, x2 = 0.29", "value": "0.0896 ± 0.0007", "unit": "m3/kg"}, {"measurement": "specific volume", "setting": "318.15 K, 322.2 kPa, x2 = 0.685", "value": "0.1005 ± 0.0007", "unit": "m3/kg"}, {"measurement": "specific volume", "setting": "318.15 K, 322.8 kPa, x2 = 0.428", "value": "0.0845 ± 0.0008", "unit": "m3/kg"}, {"measurement": "specific volume", "setting": "318.15 K, 339.5 kPa, x2 = 0.612", "value": "0.0891 ± 0.0008", "unit": "m3/kg"}, {"measurement": "specific volume", "setting": "318.15 K, 389.5 kPa, x2 = 0.755", "value": "0.0857 ± 0.0007", "unit": "m3/kg"}, {"measurement": "specific volume", "setting": "323.15 K, 278.8 kPa, x2 = 0.516", "value": "0.1063 ± 0.0008", "unit": "m3/kg"}, {"measurement": "specific volume", "setting": "323.15 K, 287.8 kPa, x2 = 0.29", "value": "0.0896 ± 0.0007", "unit": "m3/kg"}, {"measurement": "specific volume", "setting": "323.15 K, 328 kPa, x2 = 0.685", "value": "0.1005 ± 0.0007", "unit": "m3/kg"}, {"measurement": "specific volume", "setting": "323.15 K, 328.5 kPa, x2 = 0.428", "value": "0.0845 ± 0.0008", "unit": "m3/kg"}, {"measurement": "specific volume", "setting": "323.15 K, 345.6 kPa, x2 = 0.612", "value": "0.0891 ± 0.0008", "unit": "m3/kg"}, {"measurement": "specific volume", "setting": "323.15 K, 396.8 kPa, x2 = 0.755", "value": "0.0857 ± 0.0007", "unit": "m3/kg"}, {"measurement": "specific volume", "setting": "328.15 K, 283.5 kPa, x2 = 0.516", "value": "0.1063 ± 0.0007", "unit": "m3/kg"}, {"measurement": "specific volume", "setting": "328.15 K, 292.7 kPa, x2 = 0.29", "value": "0.0896 ± 0.0007", "unit": "m3/kg"}, {"measurement": "specific volume", "setting": "328.15 K, 333.7 kPa, x2 = 0.685", "value": "0.1005 ± 0.0007", "unit": "m3/kg"}, {"measurement": "specific volume", "setting": "328.15 K, 334.2 kPa, x2 = 0.428", "value": "0.0845 ± 0.0007", "unit": "m3/kg"}, {"measurement": "specific volume", "setting": "328.15 K, 351.7 kPa, x2 = 0.612", "value": "0.0891 ± 0.0008", "unit": "m3/kg"}, {"measurement": "specific volume", "setting": "328.15 K, 404 kPa, x2 = 0.755", "value": "0.0857 ± 0.0007", "unit": "m3/kg"}, {"measurement": "specific volume", "setting": "333.15 K, 288.2 kPa, x2 = 0.516", "value": "0.1063 ± 0.0007", "unit": "m3/kg"}, {"measurement": "specific volume", "setting": "333.15 K, 297.6 kPa, x2 = 0.29", "value": "0.0896 ± 0.0007", "unit": "m3/kg"}, {"measurement": "specific volume", "setting": "333.15 K, 339.5 kPa, x2 = 0.685", "value": "0.1005 ± 0.0007", "unit": "m3/kg"}, {"measurement": "specific volume", "setting": "333.15 K, 339.9 kPa, x2 = 0.428", "value": "0.0845 ± 0.0007", "unit": "m3/kg"}, {"measurement": "specific volume", "setting": "333.15 K, 357.8 kPa, x2 = 0.612", "value": "0.0891 ± 0.0008", "unit": "m3/kg"}, {"measurement": "specific volume", "setting": "333.15 K, 411.2 kPa, x2 = 0.755", "value": "0.0857 ± 0.0007", "unit": "m3/kg"}, {"measurement": "specific volume", "setting": "338.15 K, 292.9 kPa, x2 = 0.516", "value": "0.1064 ± 0.0007", "unit": "m3/kg"}, {"measurement": "specific volume", "setting": "338.15 K, 302.5 kPa, x2 = 0.29", "value": "0.0897 ± 0.0007", "unit": "m3/kg"}, {"measurement": "specific volume", "setting": "338.15 K, 345.1 kPa, x2 = 0.685", "value": "0.1006 ± 0.0007", "unit": "m3/kg"}, {"measurement": "specific volume", "setting": "338.15 K, 345.6 kPa, x2 = 0.428", "value": "0.0845 ± 0.0007", "unit": "m3/kg"}, {"measurement": "specific volume", "setting": "338.15 K, 363.8 kPa, x2 = 0.612", "value": "0.0892 ± 0.0007", "unit": "m3/kg"}, {"measurement": "specific volume", "setting": "338.15 K, 418.3 kPa, x2 = 0.755", "value": "0.0857 ± 0.0007", "unit": "m3/kg"}, {"measurement": "specific volume", "setting": "343.15 K, 297.6 kPa, x2 = 0.516", "value": "0.1064 ± 0.0007", "unit": "m3/kg"}, {"measurement": "specific volume", "setting": "343.15 K, 307.4 kPa, x2 = 0.29", "value": "0.0897 ± 0.0007", "unit": "m3/kg"}, {"measurement": "specific volume", "setting": "343.15 K, 350.8 kPa, x2 = 0.685", "value": "0.1006 ± 0.0007", "unit": "m3/kg"}]}
